This passage reports CP50 results from patent US20240245793A1, “PSD-95 INHIBITORS AND USES THEREOF” (priority 2021, published 2024).

In one series the test system is HeLa cells stably expressing HaloGFP. The series is described as follows: Chloroalkane penetration assay (CAPA), membrane permeability and cellular uptake. It counts as cell-based.
Details: not given
An excerpt: Since PSD-95 is located intracellularly, it is essential for any drug targeting PSD-95 to efficiently cross the cell membrane. To assess the cellular permeability and delivery to the cytosol of the compounds as defined herein, the cellular chloroalkane penetration assay (CAPA) may be used (Peraro et al. 2018). This assay takes advantage of a modified haloalkane dehalogenase designed to covalently bind chloroalkane (CA) molecules. A HeLa cell line expressing a fusion protein comprising a HaloTag, a green fluorescent protein (GFP) and a mitochondria-targeting peptide is used to report cytosolic delivery. The general format of the CAPA is a pulse-chase assay (Deprey & Kritzer, 2020). Cells expressing the HaloTag enzyme are incubated with CA-tagged peptides. When these CA-peptides penetrate the cell membrane and reach the cytosol, they will bind to and react with the HaloTag (pulse step). Following a washing step, the cells are incubated with a CA-tagged dye that quantitatively penetrates the cell membrane and reacts with remaining unreacted HaloTag sites (chase step). Flow cytometry is used to measure the fluorescence intensity of the cells and the measured fluorescence is inversely proportional to the amount of CA-peptides that reach the penetrated the cells and can thus be used to assess cytosolic delivery. The obtained data is commonly expressed as CP50 values, the concentration at which 50% cell penetration is observed. The CP50 value of a compound may be measured as described in example 4.
The membrane permeability of compounds 10 to 75 was determined in HeLa cells stably expressing HaloGFP exclusively located in the cytosol. Cells were seeded at a density of 40.000 cells/well one day prior to the experiment. After the growth media was aspirated and replaced by 100 μL of Opti-MEM, 25 μL of a prepared serial dilution of the ligand in Opti-MEM was added to the cells (constant DMSO concentration), and the plate was incubated for 4 h at 37° C. and 5% CO2. The contents of the wells were aspirated, and cells were washed with fresh Opti-MEM for 15 min. After aspiration of the wash, the cells were incubated with TAMRA-CA (5 μM) for 15 min. After aspiration of the chase solution, cells were washed with Opti-MEM for 30 min. Following removal of the wash, cells were trypsinized, resuspended in PBS (2% FBS), and analyzed using a benchtop flow cytometer. Using no ligand and no TAMRA-CA control well, the obtained fluorescence intensity data was normalized and plotted as dose-response curves. Reported CP50 values represent half-maximum red fluorescence which behaves inverse to cell penetration of the ligand.
`CC(C)[C@H](NC(=O)[C@@H](NC(=O)[C@@H](NC(=O)[C@H](CCC(=O)O)NC(=O)[C@H](CCCCN)NC(=O)CCOCCOCCN(CCOCCOCCC(=O)N[C@@H](CCCCN)C(=O)N[C@@H](CCC(=O)O)C(=O)N[C@H](C(=O)N[C@H](C(=O)N[C@H](C(=O)O)C(C)C)C(C)C)[C@@H](C)O)C(=O)[C@H](CCCNC(=N)N)NC(=O)[C@H](CCCNC(=N)N)NC(=O)[C@H](CCCNC(=N)N)NC(=O)[C@H](CCCNC(=N)N)NC(=O)[C@H](CCCNC(=N)N)NC(=O)[C@H](CCCNC(=N)N)NC(=O)[C@H](CCCNC(=N)N)NC(=O)[C@H](CCCNC(=N)N)NC(=O)[C@H](CCCNC(=N)N)NC(=O)CCC(=O)NCCOCCOCCCCCCCl)[C@@H](C)O)C(C)C)C(=O)O` [Compound 28]: the CP50 was determined as 0.79 ± 0.06 µM.
On the same count and under the same terms, for `CC[C@@H](C)[C@@H](NC(=O)[C@@H](CC(C)C)NC(=O)[C@H]1CCCN1C(=O)CCC(=O)NCCOCCOCCCCCCCl)C(=O)N[C@H](Cc1ccc(O)cc1)C(=O)N[C@H](CC(C)C)C(=O)N[C@H](CCCNC(=N)N)C(=O)N[C@H](CC(C)C)C(=O)N[C@H](CC(C)C)C(=O)N[C@H](CCCNC(=N)N)C(=O)NCC(=O)N[C@H](CCC(N)=O)C(=O)N[C@H](Cc1ccccc1)C(=O)N(CCOCCOCCC(=O)N[C@H](C(=O)N[C@@H](CCC(=O)O)C(=O)N[C@H](C(=O)N[C@@H](CC(=O)O)C(=O)N[C@H](C(=O)O)C(C)C)[C@@H](C)O)[C@@H](C)CC)CCOCCOCCC(=O)N[C@H](C(=O)N[C@@H](CCC(=O)O)C(=O)N[C@H](C(=O)N[C@@H](CC(=O)O)C(=O)N[C@H](C(=O)O)C(C)C)[C@@H](C)O)[C@@H](C)CC` [Compound 59] the value was 67.2 ± 5.3 µM; for `CC(C)C[C@H](NC(=O)[C@@H](NC(=O)[C@H](CCC(=O)O)NC(=O)[C@H](CCCCN)NC(=O)CCOCCOCCN(CCOCCOCCC(=O)N[C@@H](CCCCN)C(=O)N[C@@H](CCC(=O)O)C(=O)N[C@H](C(=O)N[C@@H](CC(C)C)C(=O)N[C@H](C(=O)O)C(C)C)[C@@H](C)O)C(=O)[C@H](CCCNC(=N)N)NC(=O)[C@H](CCCNC(=N)N)NC(=O)[C@H](CCCNC(=N)N)NC(=O)[C@H](CCCNC(=N)N)NC(=O)[C@H](CCCNC(=N)N)NC(=O)[C@H](CCCNC(=N)N)NC(=O)CCC(=O)NCCOCCOCCCCCCCl)[C@@H](C)O)C(=O)N[C@H](C(=O)O)C(C)C` [Compound 70], 0.51 ± 0.08 µM.
The same measure, in the same setting: under `CC[C@H](C)[C@H](NC(=O)CCOCCOCCN(CCOCCOCCC(=O)N[C@H](C(=O)N[C@@H](CCC(=O)O)C(=O)N[C@H](C(=O)N[C@@H](CC(=O)O)C(=O)N[C@H](C(=O)O)C(C)C)[C@@H](C)O)[C@@H](C)CC)C(=O)[C@H](CCCNC(=N)N)NC(=O)[C@H](CCCNC(=N)N)NC(=O)[C@H](CCCNC(=N)N)NC(=O)CCC(=O)NCCOCCOCCCCCCCl)C(=O)N[C@@H](CCC(=O)O)C(=O)N[C@H](C(=O)N[C@@H](CC(=O)O)C(=O)N[C@H](C(=O)O)C(C)C)[C@@H](C)O` [Compound 66] stands 3.71 ± 0.30 µM.
On the same count and under the same terms, for `CC[C@H](C)[C@H](NC(=O)CCOCCOCCN(CCOCCOCCC(=O)N[C@H](C(=O)N[C@@H](CCC(=O)O)C(=O)N[C@H](C(=O)N[C@@H](CC(=O)O)C(=O)N[C@H](C(=O)O)C(C)C)[C@@H](C)O)[C@@H](C)CC)C(=O)[C@H](Cc1ccccc1)NC(=O)[C@H](CCC(N)=O)NC(=O)CNC(=O)[C@H](CCCNC(=N)N)NC(=O)[C@H](CC(C)C)NC(=O)[C@H](CC(C)C)NC(=O)[C@H](CCCNC(=N)N)NC(=O)[C@H](CC(C)C)NC(=O)[C@H](Cc1ccc(O)cc1)NC(=O)[C@@H](NC(=O)[C@H](CC(C)C)NC(=O)[C@@H]1CCCN1C(=O)CCC(=O)NCCOCCOCCCCCCCl)[C@@H](C)CC)C(=O)N[C@@H](CCC(=O)O)C(=O)N[C@H](C(=O)N[C@@H](CC(=O)O)C(=O)N[C@H](C(=O)O)C(C)C)[C@@H](C)O` [Compound 57] the value was 17.9 ± 0.3 µM; for `CC[C@H](C)[C@H](NC(=O)CCOCCOCCN(CCOCCOCCC(=O)N[C@H](C(=O)N[C@@H](CCC(=O)O)C(=O)N[C@H](C(=O)N[C@@H](CC(=O)O)C(=O)N[C@H](C(=O)O)C(C)C)[C@@H](C)O)[C@@H](C)CC)C(=O)[C@@H](CCCNC(=N)N)NC(=O)[C@@H](CCCCN)NC(=O)[C@@H](CCCCN)NC(=O)[C@@H](CCCNC(=N)N)NC(=O)[C@@H](CCCNC(=N)N)NC(=O)[C@@H](CCC(N)=O)NC(=O)[C@@H](CCCNC(=N)N)NC(=O)[C@@H](CCCNC(=N)N)NC(=O)[C@@H](CCCNC(=N)N)NC(=O)CCC(=O)NCCOCCOCCCCCCCl)C(=O)N[C@@H](CCC(=O)O)C(=O)N[C@H](C(=O)N[C@@H](CC(=O)O)C(=O)N[C@H](C(=O)O)C(C)C)[C@@H](C)O` [Compound 43], 221 ± 36 µM.
Consider `CC(C)[C@H](NC(=O)[C@H](CCCNC(=N)N)NC(=O)[C@@H](NC(=O)[C@H](CCC(=O)O)NC(=O)[C@H](CCCCN)NC(=O)CCOCCOCCN(CCOCCOCCC(=O)N[C@@H](CCCCN)C(=O)N[C@@H](CCC(=O)O)C(=O)N[C@H](C(=O)N[C@@H](CCCNC(=N)N)C(=O)N[C@H](C(=O)O)C(C)C)[C@@H](C)O)C(=O)[C@H](CCCNC(=N)N)NC(=O)[C@H](CCCNC(=N)N)NC(=O)[C@H](CCCNC(=N)N)NC(=O)[C@H](CCCNC(=N)N)NC(=O)[C@H](CCCNC(=N)N)NC(=O)[C@H](CCCNC(=N)N)NC(=O)[C@H](CCCNC(=N)N)NC(=O)[C@H](CCCNC(=N)N)NC(=O)[C@H](CCCNC(=N)N)NC(=O)CCC(=O)NCCOCCOCCCCCCCl)[C@@H](C)O)C(=O)O` [Compound 30], for which the CP50 stood at 0.68 ± 0.05 µM.
On to `CC[C@H](C)[C@H](NC(=O)CCOCCOCCN(CCOCCOCCC(=O)N[C@H](C(=O)N[C@@H](CO)C(=O)N[C@H](C(=O)N[C@@H](CC(=O)O)C(=O)N[C@H](C(=O)O)C(C)C)[C@@H](C)O)[C@@H](C)CC)C(=O)[C@H](CCCNC(=N)N)NC(=O)[C@H](CCCNC(=N)N)NC(=O)[C@H](CCCNC(=N)N)NC(=O)[C@H](CCCNC(=N)N)NC(=O)[C@H](CCCNC(=N)N)NC(=O)[C@H](CCCNC(=N)N)NC(=O)[C@H](CCCNC(=N)N)NC(=O)[C@H](CCCNC(=N)N)NC(=O)[C@H](CCCNC(=N)N)NC(=O)CCC(=O)NCCOCCOCCCCCCCl)C(=O)N[C@@H](CO)C(=O)N[C@H](C(=O)N[C@@H](CC(=O)O)C(=O)N[C@H](C(=O)O)C(C)C)[C@@H](C)O` [Compound 32], for which the CP50 amounted to 1.05 ± 0.15 µM.

The same series, now with this note: CA-tagged ligands, 4 h at 37° C.; L-TAT and L-Arg9; mean ± SEM (Table 10, FIG. 7).
In the case of `CC[C@H](C)[C@H](NC(=O)CCOCCOCCN(CCOCCOCCC(=O)N[C@H](C(=O)N[C@@H](CO)C(=O)N[C@H](C(=O)N[C@@H](CC(=O)O)C(=O)N[C@H](C(=O)O)C(C)C)[C@@H](C)O)[C@@H](C)CC)C(=O)[C@H](CCCNC(=N)N)NC(=O)[C@H](CCCNC(=N)N)NC(=O)[C@H](CCCNC(=N)N)NC(=O)[C@H](CCC(N)=O)NC(=O)[C@H](CCCNC(=N)N)NC(=O)[C@H](CCCNC(=N)N)NC(=O)[C@H](CCCCN)NC(=O)[C@H](CCCCN)NC(=O)[C@H](CCCNC(=N)N)NC(=O)CNC(=O)[C@H](Cc1ccc(O)cc1)NC(=O)CCC(=O)NCCOCCOCCCCCCCl)C(=O)N[C@@H](CO)C(=O)N[C@H](C(=O)N[C@@H](CC(=O)O)C(=O)N[C@H](C(=O)O)C(C)C)[C@@H](C)O` [Compound 20], the CP50 came out at 41.9 ± 1.6 µM.
